In data set [1] the test system is erythrocytes from dog. Nature of the data set: aggregation of erythrocytes induced by Dextran, in vitro, dog erythrocytes. The data set is classed as cell-based. The conditions noted are these: at 0.001 and 0.002 molar. The source says:
(§1) The inhibiting action of compound I on the aggregation of erythrocytes induced by Dextran was evidenced in vitro on erythrocytes from human, dog and rabbit, according to the method of Von Kaulla K.N., ArzneimittelForschung, Drug Research 25 (2) 152-155 (1975).

For data set [2], the system named is erythrocytes from rabbit. Nature of the data set: aggregation of erythrocytes induced by Dextran, in vitro, rabbit erythrocytes. The data set is classed as cell-based. Conditions: at 0.001 and 0.002 molar.
Description: as §1

For data set [3], the system named is fibrinogen. Description: fibrinogen level in standard plasma incubated with compound I. The conditions noted are these: non-lytic doses by excess (high concentrations). The format is biochemical.
Data set [4] deals with α1 -anti-trypsins. Description: fibrinolytic inhibitors: α1-anti-trypsins titrated by radial immuno-diffusion in standard plasma. The data set is classed as biochemical. Conditions: one hour at 37° C. As to the method:
(§2) The main inhibitors of anti-plasminic type, viz. α2 -macroglobulins, α1 -anti-trypsins and anti-thrombin III were titrated according to the radial immuno-diffusion techniques.
(§3) Three concentrations of compound I were incorporated to a pool of standard plasma and incubated for one hour at 37° C. At non-lytic doses by deficiency (suspended standard clots) the compound I gives a decrease of about 10% of α2 -macroglobulins level, a decrease of about 20% of α1 -anti-trypsins level and a decrease of about 10% of anti-thrombin III level.

The nature of data set [5]: toxicity (LD50) in mice, I.V. and P.O. Conditions: mouse, in vivo.
In data set [6] the test system is fibrinolytic activity. Description: fibrinolytic activity in male rats after P.O. administration. The data set is classed as in vivo. The conditions noted are these: 25 mg/kg P.O. As to the method:
The fibrinolytic activity was determined on a batch of 7 male rats after administration of 25 mg/kg P.O. of compound I. It was observed that the fibrinolytic activity increases respectively of 14 and 11%, 60 and 90 minutes after the administration of the product. The return to basis values takes place 3 hours after this administration.

In data set [7] the test system is monomers of fibrin. Description: level of monomers of fibrin in the rabbit after I.V. administration. The format is in vivo. Conditions: 5 mg/kg I.V. The source says: This decrease reaches 23%, ten minutes after the injection.
The subject of data set [8] is erythrocytes from human. Nature of the data set: aggregation of erythrocytes induced by Dextran, in vitro, human erythrocytes. The conditions noted are these: at 0.001 and 0.002 molar. The data set is classed as cell-based.
Description: as §1

Data set [9] deals with anti-thrombin III. Description: fibrinolytic inhibitors: anti-thrombin III titrated by radial immuno-diffusion in standard plasma. The data set is classed as biochemical. The conditions noted are these: one hour at 37° C. The protocol:
as §2, §3

Data set [10] has as its system plasmatic clot. Nature of the data set: retraction of plasmatic clot in vitro. The data set is classed as biochemical. The conditions noted are these: concentrations ≥ 1,79 mg/ml of plasma, 60 minutes. As to the method: The inhibiting action of compound I on the retraction of plasmatic clot was evidenced in vitro. At the concentrations ≥ 1,79 mg/ml of plasma, the compound I inhibits totally (100%) the normal retraction of the clot measured for a lapse of 60 minutes.

For data set [11], the system named is platelet stickiness. Description: platelet stickiness, Salzman method, in the rabbit. The data set is classed as in vivo. The conditions noted are these: 50 mg/kg P.O., 4 hours after administration. As to the method:
By using the Salzman method, J. Lab. Clin. Med. 62, 724 (1963), it was observed that the compound I decreases by 20% the platelet stickiness, 4 hours after the administration of 50 mg/kg P.O. of the product in the rabbit.

In data set [12] the test system is α2 -macroglobulins. Description: fibrinolytic inhibitors: α2-macroglobulins titrated by radial immuno-diffusion in standard plasma. The data set is classed as biochemical. Conditions: one hour at 37° C. The protocol: as §2, §3

`CCCCCc1cc(O)c(C(=O)O)c(O)c1` [compound I, 4-n-pentyl-6-hydroxy salicylic acid]: the “inhibition of the aggregation of erythrocytes induced by Dextran” value in data set [1], in data set [2] and in [8] was 100% in each case. Further, the fibrinogen level result in data set [3] is given as “important decrease”. Besides, the “decrease of α1 anti-trypsins level” value in data set [4] (lytic doses) was determined as 80%. Further, the “decrease of α1 -anti-trypsins level” value in [4] (non-lytic doses by deficiency) is on record as “about 20%”. Moreover, the LD50 in data set [5] (iv, I.V.) lay in the range of 50 to 100 mg/kg; in data set [5] (po, P.O.) it was 1000 to 1500 mg/kg. Further, the “return of fibrinolytic activity to basis values, time after administration” value in data set [6] turned out to be 3 h. In addition, the “increase of fibrinolytic activity” value in data set [6] (60 minutes after administration) is on record as 14%; in data set [6] (90 minutes after administration), 11%. The figures for the “decrease of the level of monomers of fibrin” value in [7] (ten minutes after injection) and in data set [7] (two minutes after injection) were 23% and 10%, respectively. Moreover, the “decrease of anti-thrombin III level” value in [9] (lytic doses) is 50%; in data set [9] (non-lytic doses by deficiency), “about 10%”. Moreover, in data set [10], the “inhibition of the normal retraction of the clot” value is 100%. Besides, in data set [11], the “decrease of platelet stickiness” value is reported as 20%. Also, the results for the “decrease of α2 -macroglobulins level” value in data set [12] (lytic doses) and in data set [12] (non-lytic doses by deficiency) were “about 20%” and “about 10%”, respectively.

In general, LD50 refers to the dose at which mortality reaches 50%.

The record behind these values is patent US4132787A, “Pharmaceutical compositions containing a gamma-resorcylic acid derivative in the treatment of thrombosis” (Science Union et Cie, priority 1975, dated 1979).
